Among the targets are Mu-type opioid receptor (Homo sapiens, UniProt P35372); Vasopressin V2 receptor (Homo sapiens, UniProt P30518); Histamine H3 receptor (Homo sapiens, UniProt Q9Y5N1).
For experiment [1], the target named is T1, Alpha-1A adrenergic receptor (Homo sapiens, UniProt P35348).
T1 sequence (P35348 whole entry): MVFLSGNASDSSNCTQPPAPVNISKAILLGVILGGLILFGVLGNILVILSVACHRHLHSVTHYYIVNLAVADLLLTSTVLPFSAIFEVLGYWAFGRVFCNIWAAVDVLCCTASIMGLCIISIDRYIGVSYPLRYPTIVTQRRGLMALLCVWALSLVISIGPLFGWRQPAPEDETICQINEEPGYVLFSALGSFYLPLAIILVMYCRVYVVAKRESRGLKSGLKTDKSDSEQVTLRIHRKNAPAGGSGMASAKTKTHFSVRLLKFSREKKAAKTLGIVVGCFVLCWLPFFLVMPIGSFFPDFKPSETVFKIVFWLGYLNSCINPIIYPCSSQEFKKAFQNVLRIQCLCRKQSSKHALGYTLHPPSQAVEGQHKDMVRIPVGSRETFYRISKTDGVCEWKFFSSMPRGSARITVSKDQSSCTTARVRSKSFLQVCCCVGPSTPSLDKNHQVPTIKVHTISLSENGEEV
It is filed as functional, cell-based.

In experiment [2] the target is Prostaglandin G/H synthase 1 (Homo sapiens, UniProt P23219). It is filed as functional.
Chain of Prostaglandin G/H synthase 1 (P23219 whole entry): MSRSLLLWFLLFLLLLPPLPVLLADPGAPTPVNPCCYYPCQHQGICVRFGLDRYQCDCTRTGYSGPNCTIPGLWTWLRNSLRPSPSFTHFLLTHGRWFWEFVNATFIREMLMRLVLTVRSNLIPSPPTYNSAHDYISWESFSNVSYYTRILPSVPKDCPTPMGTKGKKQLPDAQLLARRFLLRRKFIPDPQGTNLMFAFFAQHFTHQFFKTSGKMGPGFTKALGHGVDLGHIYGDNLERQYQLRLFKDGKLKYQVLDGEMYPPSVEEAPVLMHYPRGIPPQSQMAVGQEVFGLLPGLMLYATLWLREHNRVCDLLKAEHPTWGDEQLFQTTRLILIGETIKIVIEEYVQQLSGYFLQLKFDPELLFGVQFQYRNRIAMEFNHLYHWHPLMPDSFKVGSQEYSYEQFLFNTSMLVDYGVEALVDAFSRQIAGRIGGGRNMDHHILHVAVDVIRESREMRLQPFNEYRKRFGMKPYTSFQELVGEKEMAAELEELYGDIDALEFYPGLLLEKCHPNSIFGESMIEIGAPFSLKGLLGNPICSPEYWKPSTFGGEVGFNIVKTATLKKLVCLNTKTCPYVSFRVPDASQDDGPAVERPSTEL
Experiment [3] concerns the target T2, Muscarinic acetylcholine receptor M2 (Homo sapiens, UniProt P08172).
T2 sequence (P08172 whole entry): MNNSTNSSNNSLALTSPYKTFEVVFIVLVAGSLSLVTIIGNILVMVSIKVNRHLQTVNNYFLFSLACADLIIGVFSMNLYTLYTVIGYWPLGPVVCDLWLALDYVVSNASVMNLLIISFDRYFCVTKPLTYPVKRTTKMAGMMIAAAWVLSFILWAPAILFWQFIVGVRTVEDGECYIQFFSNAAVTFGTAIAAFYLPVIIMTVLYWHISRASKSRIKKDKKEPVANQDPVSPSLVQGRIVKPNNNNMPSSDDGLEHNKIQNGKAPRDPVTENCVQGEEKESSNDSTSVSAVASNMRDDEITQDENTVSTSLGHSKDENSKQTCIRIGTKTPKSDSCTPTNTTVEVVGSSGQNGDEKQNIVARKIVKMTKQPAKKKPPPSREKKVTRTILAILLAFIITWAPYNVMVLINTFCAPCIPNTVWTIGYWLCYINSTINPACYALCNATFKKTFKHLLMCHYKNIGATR

The target in experiment [4] is Gamma-aminobutyric acid receptor subunit alpha-1 (Rattus norvegicus, UniProt P62813).
Chain of Gamma-aminobutyric acid receptor subunit alpha-1 (P62813 whole entry): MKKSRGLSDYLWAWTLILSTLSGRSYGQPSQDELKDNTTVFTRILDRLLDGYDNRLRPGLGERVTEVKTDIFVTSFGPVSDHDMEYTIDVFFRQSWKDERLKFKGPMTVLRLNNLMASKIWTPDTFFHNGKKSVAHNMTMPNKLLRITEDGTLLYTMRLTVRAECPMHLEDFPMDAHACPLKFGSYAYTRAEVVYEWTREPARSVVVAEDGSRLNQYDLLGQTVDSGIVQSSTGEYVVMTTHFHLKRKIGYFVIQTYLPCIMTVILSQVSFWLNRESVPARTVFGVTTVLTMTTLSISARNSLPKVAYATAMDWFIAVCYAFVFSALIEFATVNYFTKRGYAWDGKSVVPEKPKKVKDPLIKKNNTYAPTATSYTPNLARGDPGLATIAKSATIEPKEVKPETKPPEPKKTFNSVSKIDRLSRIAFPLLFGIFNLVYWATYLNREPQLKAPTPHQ
In experiment [5] the target is Beta-2 adrenergic receptor (Homo sapiens, UniProt P07550).
Chain of Beta-2 adrenergic receptor (P07550 whole entry): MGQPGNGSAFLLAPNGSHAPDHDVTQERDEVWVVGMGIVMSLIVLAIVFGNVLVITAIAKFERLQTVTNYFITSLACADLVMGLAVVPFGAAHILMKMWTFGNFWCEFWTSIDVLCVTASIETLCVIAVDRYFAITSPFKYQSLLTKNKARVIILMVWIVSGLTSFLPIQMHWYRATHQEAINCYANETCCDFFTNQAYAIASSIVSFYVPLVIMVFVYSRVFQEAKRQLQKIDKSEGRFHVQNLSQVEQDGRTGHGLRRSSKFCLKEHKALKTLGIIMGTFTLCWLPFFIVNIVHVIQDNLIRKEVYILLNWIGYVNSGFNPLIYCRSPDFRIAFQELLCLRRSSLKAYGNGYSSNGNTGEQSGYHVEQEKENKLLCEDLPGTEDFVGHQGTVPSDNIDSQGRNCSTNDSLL
Experiment [6] concerns the target T3, 5-hydroxytryptamine receptor 1A (Homo sapiens, UniProt P08908).
T3 sequence (P08908 whole entry): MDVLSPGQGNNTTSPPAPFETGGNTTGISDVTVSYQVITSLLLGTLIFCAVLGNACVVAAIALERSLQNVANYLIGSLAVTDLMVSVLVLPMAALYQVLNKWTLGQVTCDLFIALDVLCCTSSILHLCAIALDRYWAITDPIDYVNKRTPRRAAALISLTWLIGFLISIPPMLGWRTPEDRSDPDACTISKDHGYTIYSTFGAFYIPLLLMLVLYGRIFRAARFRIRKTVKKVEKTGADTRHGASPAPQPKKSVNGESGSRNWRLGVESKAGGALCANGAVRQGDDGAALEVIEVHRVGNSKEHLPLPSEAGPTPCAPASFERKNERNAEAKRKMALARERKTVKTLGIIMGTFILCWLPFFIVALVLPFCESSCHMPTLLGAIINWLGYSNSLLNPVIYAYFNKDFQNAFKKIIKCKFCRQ
It is filed as functional, cell-based.

Experiment [7] concerns the target T2, Muscarinic acetylcholine receptor M2. Type of experiment: functional, cell-based.
For experiment [8], the target named is T4, Progesterone receptor (Homo sapiens, UniProt P06401).
T4 sequence (P06401 whole entry): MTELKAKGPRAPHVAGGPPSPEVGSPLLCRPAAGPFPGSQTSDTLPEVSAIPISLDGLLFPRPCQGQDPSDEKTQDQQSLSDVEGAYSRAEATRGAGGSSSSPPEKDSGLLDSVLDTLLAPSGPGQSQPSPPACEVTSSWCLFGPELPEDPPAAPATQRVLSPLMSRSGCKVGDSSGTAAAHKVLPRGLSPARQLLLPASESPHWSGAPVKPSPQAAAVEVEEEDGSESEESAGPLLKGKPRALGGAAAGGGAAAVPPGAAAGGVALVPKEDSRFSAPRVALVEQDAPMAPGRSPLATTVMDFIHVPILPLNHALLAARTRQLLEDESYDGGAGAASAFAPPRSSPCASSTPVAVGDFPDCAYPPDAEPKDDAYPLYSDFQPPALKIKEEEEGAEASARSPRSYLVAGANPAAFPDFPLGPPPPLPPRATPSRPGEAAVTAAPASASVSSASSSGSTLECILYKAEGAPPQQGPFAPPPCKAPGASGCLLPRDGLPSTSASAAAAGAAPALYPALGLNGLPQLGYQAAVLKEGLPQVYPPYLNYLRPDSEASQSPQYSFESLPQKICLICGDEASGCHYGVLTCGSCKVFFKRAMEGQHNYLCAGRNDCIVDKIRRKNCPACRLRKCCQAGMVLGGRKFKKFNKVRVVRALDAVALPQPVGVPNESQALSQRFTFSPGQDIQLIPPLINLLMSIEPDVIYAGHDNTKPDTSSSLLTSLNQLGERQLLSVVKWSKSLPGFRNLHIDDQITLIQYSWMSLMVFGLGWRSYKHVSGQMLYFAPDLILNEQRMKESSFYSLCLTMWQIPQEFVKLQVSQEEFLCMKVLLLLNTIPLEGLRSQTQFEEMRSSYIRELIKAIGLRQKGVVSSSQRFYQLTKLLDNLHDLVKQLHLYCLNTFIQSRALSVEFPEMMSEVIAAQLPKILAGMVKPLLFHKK
It is filed as functional.

In experiment [9] the target is T4, Progesterone receptor. It is filed as functional. The source holds these as a separate data set.
Note: assay procedure not described here.

Chain of Mu-type opioid receptor (P35372 whole entry): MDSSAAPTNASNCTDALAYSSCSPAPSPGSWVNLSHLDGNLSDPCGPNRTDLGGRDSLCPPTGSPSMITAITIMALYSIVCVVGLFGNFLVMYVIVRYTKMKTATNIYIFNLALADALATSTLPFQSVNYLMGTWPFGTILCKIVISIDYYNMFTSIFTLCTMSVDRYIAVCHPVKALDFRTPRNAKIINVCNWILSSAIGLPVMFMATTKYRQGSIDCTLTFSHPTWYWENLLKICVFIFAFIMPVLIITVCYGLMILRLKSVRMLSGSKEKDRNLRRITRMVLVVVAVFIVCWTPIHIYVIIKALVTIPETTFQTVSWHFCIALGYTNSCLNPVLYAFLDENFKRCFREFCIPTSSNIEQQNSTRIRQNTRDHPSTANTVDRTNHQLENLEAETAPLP
Chain of Histamine H3 receptor (Q9Y5N1 whole entry): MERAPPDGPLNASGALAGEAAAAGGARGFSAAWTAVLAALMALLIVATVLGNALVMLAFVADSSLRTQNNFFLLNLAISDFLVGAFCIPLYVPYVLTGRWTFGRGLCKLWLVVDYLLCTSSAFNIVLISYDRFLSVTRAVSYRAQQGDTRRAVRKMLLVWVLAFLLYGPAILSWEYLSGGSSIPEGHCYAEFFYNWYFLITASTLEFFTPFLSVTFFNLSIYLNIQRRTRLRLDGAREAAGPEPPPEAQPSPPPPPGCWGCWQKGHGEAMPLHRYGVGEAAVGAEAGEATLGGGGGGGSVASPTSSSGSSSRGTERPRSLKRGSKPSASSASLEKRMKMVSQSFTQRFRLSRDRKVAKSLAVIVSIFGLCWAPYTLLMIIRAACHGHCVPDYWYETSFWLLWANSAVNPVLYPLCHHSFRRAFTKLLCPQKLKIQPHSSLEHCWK
Chain of Vasopressin V2 receptor (P30518 whole entry): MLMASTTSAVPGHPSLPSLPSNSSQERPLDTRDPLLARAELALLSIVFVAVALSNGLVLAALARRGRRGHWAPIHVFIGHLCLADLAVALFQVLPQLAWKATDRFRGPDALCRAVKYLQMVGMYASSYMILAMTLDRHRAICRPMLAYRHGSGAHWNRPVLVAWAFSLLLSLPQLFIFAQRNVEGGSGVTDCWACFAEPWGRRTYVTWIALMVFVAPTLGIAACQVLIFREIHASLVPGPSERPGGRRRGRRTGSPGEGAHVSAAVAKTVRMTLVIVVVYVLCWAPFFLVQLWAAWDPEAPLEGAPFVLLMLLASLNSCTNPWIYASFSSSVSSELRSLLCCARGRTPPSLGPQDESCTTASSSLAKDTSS

Take `CC(=O)OC[C@H]1O[C@@H](n2ccc(=O)[nH]c2=O)[C@H](OC(C)=O)[C@@H]1OC(C)=O` [URIDINE TRIACETATE]: the AC50 (in experiment [1]; at Mu-type opioid receptor; in experiment [2]; in experiment [3]) was over 30 µM in each case.

Consider `CCC(=O)c1c(O)cc(O)cc1O` [FLOPROPIONE], for which the AC50 (as a rule, the midpoint of the concentration-response curve, whichever way the signal moves) is over 30 µM in [1], over 30 µM on Mu-type opioid receptor, 22.3 µM in experiment [2] and over 30 µM in experiment [3].

Turning to `CCc1nn(CCCN2CCN(c3cccc(Cl)c3)CC2)c(=O)n1CCOc1ccccc1` [NEFAZODONE], the results for the AC50 (in experiment [4]; in experiment [5]; on Vasopressin V2 receptor) were over 10 µM, over 10 µM and over 30 µM, respectively.

Take `CC(=O)OCC(=O)[C@@]1(O)CC[C@H]2[C@@H]3CCC4=CC(=O)CC[C@]4(C)[C@H]3C(=O)C[C@@]21C` [CORTISONE ACETATE]: the AC50 in experiment [4] and in [6] was over 30 µM throughout.

As for `O=C1CC[C@@]2(O)[C@H]3Cc4ccc(O)c5c4[C@@]2(CCN3CC2CC2)[C@H]1O5` [NALTREXONE], the AC50 in experiment [1], in [2] and in experiment [3] was over 30 µM in each case.

Consider `O=C1[C@H](CC[C@H](O)c2ccc(F)cc2)[C@@H](c2ccc(O)cc2)N1c1ccc(F)cc1` [EZETIMIBE], for which the AC50 on Mu-type opioid receptor was 13.9 µM; in experiment [2], over 30 µM; in experiment [3], over 30 µM.

As to `CCCS(=O)(=O)Nc1ccc(F)c(C(=O)c2c[nH]c3ncc(-c4ccc(Cl)cc4)cc23)c1F` [VEMURAFENIB], the concentration at half-maximal activity (AC50) is over 30 µM on Histamine H3 receptor; over 30 µM in experiment [7]; over 30 µM in experiment [4]; over 30 µM in [5]; 23 µM at Progesterone receptor [8]; over 30 µM at Vasopressin V2 receptor.

In the case of `Cc1cc2c(cc1CC(=O)c1sccc1S(=O)(=O)Nc1onc(C)c1Cl)OCO2` [SITAXENTAN], the AC50 (at Mu-type opioid receptor; in experiment [2]; in experiment [3]) was over 30 µM in each case.

Consider `CCC(=O)O[C@H]1[C@H](O[C@@H]2[C@@H](C)[C@H](O[C@H]3C[C@@](C)(OC)[C@@H](O)[C@H](C)O3)[C@@H](C)C(=O)O[C@H](CC)[C@@](C)(O)[C@H](O)[C@@H](C)C(=O)[C@H](C)C[C@@]2(C)O)O[C@H](C)C[C@@H]1N(C)C` [ERYTHROMYCIN PROPIONATE], for which the results for the AC50 (on Mu-type opioid receptor; in experiment [2]; in experiment [3]) were 16.2 µM, over 30 µM and over 30 µM, respectively.

As for `CNC(=O)c1cc(Oc2ccc(NC(=O)Nc3ccc(Cl)c(C(F)(F)F)c3)cc2)ccn1` [SORAFENIB], the AC50 (at Histamine H3 receptor; in [7]; in experiment [4]; in experiment [5]; at Progesterone receptor [8]; at Progesterone receptor [9]) was over 30 µM each time. This compound showed an AC50 at Vasopressin V2 receptor of over 30 µM.

Regarding `COC(=O)C1=C(C)NC(C)=C(C(=O)OCC(C)C)C1c1ccccc1[N+](=O)[O-]` (stereo unspecified) [NISOLDIPINE], the AC50 was over 10 µM in experiment [7]; over 10 µM in experiment [4]; over 10 µM in experiment [5]; over 10 µM in [6]; over 30 µM on Progesterone receptor [8]; 4.9 µM on Progesterone receptor [9]. Further, at Vasopressin V2 receptor, the AC50 was over 10 µM.

As for `OCc1cc([C@@H](O)CNCCCCCCOCCOCc2c(Cl)cccc2Cl)ccc1O` [VILANTEROL], the AC50 (at Histamine H3 receptor; in [7]; in [6]; at Progesterone receptor [8]; at Progesterone receptor [9]) was over 30 µM throughout.

In the case of `NC1=NC(=O)C(c2ccccc2)O1` (stereo unspecified) [PEMOLINE], the AC50 on Histamine H3 receptor was over 10 µM; in [7] it was over 10 µM; in experiment [4] it was over 10 µM; in experiment [5] it was over 10 µM; in experiment [6], over 10 µM; at Vasopressin V2 receptor, over 30 µM.

`N[C@@H](C(=O)N[C@@H]1C(=O)N2C(C(=O)O)=C(Cl)CS[C@H]12)c1ccccc1` [CEFACLOR ANHYDROUS]: the AC50 (on Histamine H3 receptor; in [7]; at Progesterone receptor [8]; at Progesterone receptor [9]; at Vasopressin V2 receptor) was over 30 µM in each case.

`Cc1cc(O)cc(C)c1Cl` [CHLOROXYLENOL]: the AC50 at Mu-type opioid receptor was over 30 µM; in [2], over 3 µM; in experiment [3] it was over 30 µM.

On to `CC(C)Cc1ccc(CC(=O)O)cc1` [IBUFENAC], for which the AC50 (at Histamine H3 receptor; in experiment [7]; in experiment [6]; on Progesterone receptor [8]; at Progesterone receptor [9]) was over 30 µM each time.

As to `NC(=O)c1ncn([C@@H]2O[C@H](CO)[C@@H](O)[C@H]2O)c1O` [MIZORIBINE], the half-maximal activity concentration (AC50) (at Histamine H3 receptor; in [6]; at Progesterone receptor [8]; at Progesterone receptor [9]; on Vasopressin V2 receptor) was over 30 µM throughout.

On to `Cc1cccc(C)c1OCC(C)N` (stereo unspecified) [MEXILETINE], for which the AC50 (at Histamine H3 receptor; in [7]; at Progesterone receptor [8]; at Progesterone receptor [9]; on Vasopressin V2 receptor) was over 30 µM each time.

Consider `CC(=O)c1ccc2c(c1)N(CCCN1CCN(CCO)CC1)c1ccccc1S2` [ACETOPHENAZINE], for which the AC50 at Histamine H3 receptor is 21 µM; in experiment [7] it was over 10 µM; in experiment [6], 0.007 µM; at Progesterone receptor [8], over 30 µM; at Progesterone receptor [9] it was over 3 µM.

As for `CC(C)NNC(=O)c1ccncc1` [IPRONIAZID], the AC50 (on Histamine H3 receptor; in [7]; in experiment [6]; on Progesterone receptor [8]; at Progesterone receptor [9]) was over 30 µM each time.

For the compound `CN1CCCC(n2nc(Cc3ccc(Cl)cc3)c3ccccc3c2=O)CC1` (stereo unspecified) [AZELASTINE], the concentration at half-maximal activity (AC50) at Histamine H3 receptor was 16 µM; in [6], over 30 µM; on Progesterone receptor [8] it was over 30 µM; on Progesterone receptor [9], over 30 µM.

As to `C[N+]1(C)[C@@H]2C[C@@H](OC(=O)[C@H](CO)c3ccccc3)C[C@H]1[C@@H]1O[C@@H]12` [METHSCOPOLAMINE], the AC50 (in experiment [1]; at Mu-type opioid receptor; in experiment [2]) was over 30 µM in each case.

Values taken from ChEMBL document CHEMBL5291721, “A preclinical secondary pharmacology resource illuminates target-adverse drug reaction associations of marketed drugs” (Nat Commun, 2023).
